# Reference: PubChem BioAssay (NCI)
#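 These data come from cells grown in 96-well plates and exposed to compound for 48 hours at five concentrations. GI50 = concentration required for 50% inhibition of growth. TGI: concentration producing complete growth inhibition.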
# Experiments:
# Experiment in all cases: inhibition of tumour cell growth, NCI panel, 48 h
# TK-10 renal = test system: TK-10 renal
# IGROV1 ovarian = test system: IGROV1 ovarian
# HL-60(TB) leukemia = test system: HL-60(TB) leukemia
# EKVX NSCLC = test system: EKVX NSCLC
# KM12 colon = test system: KM12 colon
# NCI-H460 lung = test system: NCI-H460 lung
# SF-295 CNS = test system: SF-295 CNS
# SF-539 CNS = test system: SF-539 CNS
# CAKI-1 renal = test system: CAKI-1 renal
# HT29 colon = test system: HT29 colon
# CCRF-CEM leukemia = test system: CCRF-CEM leukemia
# UACC-62 melanoma = test system: UACC-62 melanoma
# SN12C renal = test system: SN12C renal
# RPMI-8226 leukemia = test system: RPMI-8226 leukemia
# SK-MEL-5 melanoma = test system: SK-MEL-5 melanoma
# SR leukemia = test system: SR leukemia
# 786-0 renal = test system: 786-0 renal
# SK-OV-3 ovarian = test system: SK-OV-3 ovarian
# NCI/ADR-RES ovarian = test system: NCI/ADR-RES ovarian
# SW-620 colon = test system: SW-620 colon
# UO-31 renal = test system: UO-31 renal
# MCF7 breast = test system: MCF7 breast
# UACC-257 melanoma = test system: UACC-257 melanoma
# SK-MEL-2 melanoma = test system: SK-MEL-2 melanoma
# HCT-116 colon = test system: HCT-116 colon
# DU-145 prostate = test system: DU-145 prostate
# M14 melanoma = test system: M14 melanoma
# HS 578T breast = test system: HS 578T breast
# MDA-MB-435 = test system: MDA-MB-435
# SF-268 CNS = test system: SF-268 CNS
# COLO 205 colon = test system: COLO 205 colon
# NCI-H522 lung = test system: NCI-H522 lung
# SNB-19 CNS = test system: SNB-19 CNS
# OVCAR-8 ovarian = test system: OVCAR-8 ovarian
# MALME-3M melanoma = test system: MALME-3M melanoma
# MDA-MB-231 breast = test system: MDA-MB-231 breast
# HOP-62 NSCLC = test system: HOP-62 NSCLC
# A549 NSCLC = test system: A549 NSCLC
# OVCAR-3 ovarian = test system: OVCAR-3 ovarian
# ACHN renal = test system: ACHN renal
# K-562 leukemia = test system: K-562 leukemia
# MOLT-4 leukemia = test system: MOLT-4 leukemia
# PC-3 prostate = test system: PC-3 prostate
# NCI-H23 lung = test system: NCI-H23 lung
# T-47D breast = test system: T-47D breast
# OVCAR-5 ovarian = test system: OVCAR-5 ovarian
# U251 CNS = test system: U251 CNS
# HCT-15 colon = test system: HCT-15 colon
# HOP-92 NSCLC = test system: HOP-92 NSCLC
# BT-549 breast = test system: BT-549 breast
# LOX IMVI melanoma = test system: LOX IMVI melanoma
# HCC-2998 colon = test system: HCC-2998 colon
# SK-MEL-28 melanoma = test system: SK-MEL-28 melanoma
# OVCAR-4 ovarian = test system: OVCAR-4 ovarian
# RXF 393 renal = test system: RXF 393 renal
smiles,measurement,setting,value
c1ccc2c(c1)SC1=Nc3sc4ccccc4[n+]3CN12,TGI,TK-10 renal,76.6 µM
same,TGI,IGROV1 ovarian,46.3 µM
same,TGI,HL-60(TB) leukemia,82.3 µM
same,TGI,EKVX NSCLC,53.5 µM
same,TGI,KM12 colon,29.3 µM
same,TGI,NCI-H460 lung,44.1 µM
same,TGI,SF-295 CNS,> 100 µM
same,TGI,SF-539 CNS,69 µM
same,TGI,CAKI-1 renal,42.4 µM
same,TGI,HT29 colon,37.7 µM
same,TGI,CCRF-CEM leukemia,> 100 µM
same,TGI,UACC-62 melanoma,45.1 µM
same,TGI,SN12C renal,71.1 µM
same,TGI,RPMI-8226 leukemia,59.6 µM
same,TGI,SK-MEL-5 melanoma,10.9 µM
same,TGI,SR leukemia,56.8 µM
same,TGI,786-0 renal,83.7 µM
same,TGI,SK-OV-3 ovarian,66.8 µM
same,TGI,NCI/ADR-RES ovarian,> 100 µM
same,TGI,SW-620 colon,> 100 µM
same,TGI,UO-31 renal,> 100 µM
same,TGI,MCF7 breast,42.9 µM
same,TGI,UACC-257 melanoma,> 100 µM
same,TGI,SK-MEL-2 melanoma,28.7 µM
same,TGI,HCT-116 colon,> 100 µM
same,TGI,DU-145 prostate,> 100 µM
same,TGI,M14 melanoma,66.2 µM
same,TGI,HS 578T breast,67.9 µM
same,TGI,MDA-MB-435,49.5 µM
same,TGI,SF-268 CNS,49.7 µM
same,TGI,COLO 205 colon,10.9 µM
same,TGI,NCI-H522 lung,9.03 µM
same,TGI,SNB-19 CNS,> 100 µM
same,TGI,OVCAR-8 ovarian,> 100 µM
same,TGI,MALME-3M melanoma,37.6 µM
same,TGI,MDA-MB-231 breast,49.2 µM
same,TGI,HOP-62 NSCLC,> 100 µM
same,TGI,A549 NSCLC,25.5 µM
same,TGI,OVCAR-3 ovarian,11.7 µM
same,TGI,ACHN renal,> 100 µM
same,TGI,K-562 leukemia,81.6 µM
same,TGI,MOLT-4 leukemia,39 µM
same,TGI,PC-3 prostate,> 100 µM
same,TGI,NCI-H23 lung,59.8 µM
same,TGI,T-47D breast,78 µM
same,TGI,OVCAR-5 ovarian,71.1 µM
same,TGI,U251 CNS,21.6 µM
same,TGI,HCT-15 colon,> 100 µM
same,TGI,HOP-92 NSCLC,47.5 µM
same,TGI,BT-549 breast,> 100 µM
COC(=O)C1=C(O)[C@H](C(=O)OC)C2(O)[C@@H](C(=O)OC)[C@H]1C[C@@H](c1ccc(OC(=O)n3ccnc3)cc1)[C@@H]2C(=O)OC,GI50,TK-10 renal,36.8 µM
same,TGI,TK-10 renal,> 50 µM
same,GI50,IGROV1 ovarian,6.62 µM
same,TGI,IGROV1 ovarian,25.4 µM
same,GI50,HL-60(TB) leukemia,13.3 µM
same,TGI,HL-60(TB) leukemia,> 50 µM
same,GI50,EKVX NSCLC,13.1 µM
same,TGI,EKVX NSCLC,45.4 µM
same,GI50,LOX IMVI melanoma,13.8 µM
same,TGI,LOX IMVI melanoma,> 50 µM
same,GI50,HCC-2998 colon,9.63 µM
same,TGI,HCC-2998 colon,18 µM
same,GI50,KM12 colon,10.6 µM
same,TGI,KM12 colon,24.5 µM
same,GI50,NCI-H460 lung,17 µM
same,TGI,NCI-H460 lung,> 50 µM
same,GI50,SF-295 CNS,12.7 µM
same,TGI,SF-295 CNS,45.6 µM
same,GI50,SF-539 CNS,8.44 µM
same,TGI,SF-539 CNS,21.3 µM
same,GI50,CAKI-1 renal,12.7 µM
same,TGI,CAKI-1 renal,41.6 µM
same,GI50,UACC-62 melanoma,9.07 µM
same,TGI,UACC-62 melanoma,30.4 µM
same,GI50,SN12C renal,11.4 µM
same,TGI,SN12C renal,30 µM
same,GI50,RPMI-8226 leukemia,18.1 µM
same,TGI,RPMI-8226 leukemia,> 50 µM
same,GI50,SK-MEL-5 melanoma,12.7 µM
same,TGI,SK-MEL-5 melanoma,36.7 µM
same,GI50,SR leukemia,10.8 µM
same,TGI,SR leukemia,> 50 µM
same,GI50,786-0 renal,18.6 µM
same,TGI,786-0 renal,45.6 µM
same,GI50,SK-OV-3 ovarian,10.3 µM
same,TGI,SK-OV-3 ovarian,29.6 µM
same,GI50,SK-MEL-28 melanoma,10.1 µM
same,TGI,SK-MEL-28 melanoma,30.5 µM
same,GI50,NCI/ADR-RES ovarian,16.1 µM
same,TGI,NCI/ADR-RES ovarian,30.7 µM
same,GI50,SW-620 colon,14.3 µM
same,TGI,SW-620 colon,> 50 µM
same,GI50,UO-31 renal,8.87 µM
same,TGI,UO-31 renal,17.8 µM
same,GI50,MCF7 breast,18.4 µM
same,TGI,MCF7 breast,> 50 µM
same,GI50,UACC-257 melanoma,16 µM
same,TGI,UACC-257 melanoma,39.8 µM
same,GI50,SK-MEL-2 melanoma,22.8 µM
same,TGI,SK-MEL-2 melanoma,> 50 µM
same,GI50,HCT-116 colon,16.8 µM
same,TGI,HCT-116 colon,> 50 µM
same,GI50,DU-145 prostate,11.7 µM
same,TGI,DU-145 prostate,42.9 µM
same,GI50,OVCAR-4 ovarian,20.2 µM
same,TGI,OVCAR-4 ovarian,> 50 µM
same,GI50,M14 melanoma,30.3 µM
same,TGI,M14 melanoma,> 50 µM
same,GI50,HS 578T breast,12.6 µM
same,TGI,HS 578T breast,41.3 µM
same,GI50,MDA-MB-435,8.77 µM
same,TGI,MDA-MB-435,21.4 µM
same,GI50,SF-268 CNS,18.7 µM
same,TGI,SF-268 CNS,> 50 µM
same,GI50,COLO 205 colon,9.69 µM
same,TGI,COLO 205 colon,34.1 µM
same,GI50,RXF 393 renal,11.8 µM
same,TGI,RXF 393 renal,26.7 µM
same,GI50,NCI-H522 lung,10.9 µM
same,TGI,NCI-H522 lung,34.4 µM
same,GI50,SNB-19 CNS,19.6 µM
same,TGI,SNB-19 CNS,> 50 µM
same,GI50,OVCAR-8 ovarian,13.4 µM
same,TGI,OVCAR-8 ovarian,36.4 µM
same,GI50,MDA-MB-231 breast,14.8 µM
same,TGI,MDA-MB-231 breast,48.6 µM
same,GI50,HOP-62 NSCLC,31.3 µM
same,TGI,HOP-62 NSCLC,> 50 µM
same,GI50,A549 NSCLC,15.2 µM
same,TGI,A549 NSCLC,> 50 µM
same,GI50,OVCAR-3 ovarian,12.6 µM
same,TGI,OVCAR-3 ovarian,> 50 µM
same,GI50,ACHN renal,15.9 µM
same,TGI,ACHN renal,42.6 µM
same,GI50,K-562 leukemia,20.3 µM
same,TGI,K-562 leukemia,> 50 µM
same,GI50,PC-3 prostate,22.4 µM
same,TGI,PC-3 prostate,> 50 µM
same,GI50,NCI-H23 lung,13.9 µM
same,TGI,NCI-H23 lung,25.6 µM
same,GI50,T-47D breast,7.39 µM
same,TGI,T-47D breast,46.4 µM
same,GI50,OVCAR-5 ovarian,25.7 µM
same,TGI,OVCAR-5 ovarian,> 50 µM
same,GI50,U251 CNS,17.9 µM
same,TGI,U251 CNS,> 50 µM
same,GI50,HCT-15 colon,21 µM
same,TGI,HCT-15 colon,> 50 µM
same,GI50,HOP-92 NSCLC,17.3 µM
same,TGI,HOP-92 NSCLC,> 50 µM
same,GI50,BT-549 breast,8.68 µM
same,TGI,BT-549 breast,24.9 µM
